Test results as given in PMC7979765, “trans-Translation inhibitors bind to a novel site on the ribosome and clear Neisseria gonorrhoeae in vivo” (Nature Communications, 2021).
≈ marks a conversion by molar mass, not a printed value. Where “and” joins values, the source holds several entries; their conditions need not be identical. Equal entries are not always repeated. Where two headings read alike, the source gives them in different places.

How the values were obtained:
Staphylococcus aureus = assay: MIC, microbroth dilution; type: cell-based
Klebsiella pneumoniae = assay: MIC, microbroth dilution; type: cell-based
Acinetobacter baumannii = assay: MIC, microbroth dilution; type: cell-based
Opiate Mu (OP3, MOP) = target: T1, Opiate Mu (OP3, MOP) (Homo sapiens, UniProt P35372); assay: Receptor Profiling 260410; type: binding
T1 construct: purchased Eurofins Discovery Services (Panlabs safety panel)
Procedure: (§1) Several in vitro selectivity assays were performed at Eurofins Discovery Services using established methods and controls that behaved as expected (Supplementary Tables 5 and 6). […] For receptor panel profiling, MBX-4132 was evaluated at 10 μM and activity of >50% (agonist or antagonist; note that negative % inhibition indicates agonism) was scored as active.

Cycloogenase COX-1 = target: T2, Cycloogenase COX-1 (Homo sapiens, UniProt P23219); assay: Receptor Profiling 116030; type: biochemical
T2 construct: Eurofins Discovery Services (contract assay) 116030
Procedure: as §1

Phosphodiesterase PDE3A = target: T3, Phosphodiesterase PDE3A (Homo sapiens, UniProt Q14432); assay: Receptor Profiling 152300; type: biochemical
T3 construct: Eurofins Discovery Services (contract assay) 152300
Procedure: as §1

Glutamate, NMDA, Agonism = assay: Receptor Profiling 232810; type: binding, rat; conditions: 10 μM
Procedure: as §1

[1] = Serum protein binding, human; type: in vitro ADME; conditions: read-out: Serum binding (% bound) Human (converted)
Procedure: Serum protein binding was determined using an equilibrium dialysis method as described. The amount of compound in each chamber (buffer and serum) was measured using methods for reverse-phase liquid chromatography/mass spectroscopy methods that were customized for each compound.

Endothelin ETA = target: T4, Endothelin ETA (Homo sapiens, UniProt P25101); assay: Receptor Profiling 224010; type: binding
T4 construct: purchased Eurofins Discovery Services (Panlabs safety panel)
Procedure: as §1

CYP2B6 = target: T5, CYP2B6 (Homo sapiens, UniProt P20813); assay: Cyp inhibition assay 4877; type: in vitro ADME; conditions: catalog reference 4877, read-out: pIC50 (µM) reported (converted)
T5 construct: Eurofins Discovery Services (contract assay) 4877
Procedure: as §1

CYP2D6 = target: T6, CYP2D6 (Homo sapiens, UniProt P10635); assay: Cyp inhibition assay 4875; type: in vitro ADME; conditions: catalog reference 4875, read-out: pIC50 (µM) reported (converted)
T6 construct: Eurofins Discovery Services (contract assay) 4875
Procedure: as §1

[2] = Pharmacokinetic analyses in mice (PO suspension, IV, SC); type: in vivo, mouse
Procedure: Female CD-1 mice as above were fasted for 2 h prior, and 4 h after dosing. […] […], 3 mice from each group were euthanized by CO2 inhalation, blood was collected by cardiac puncture into K2EDTA collection tubes, and protein was precipitated and analysed by LC/MS-MS for plasma concentrations of MBX-4132. Data were analysed using WinNonLin.
[…] At 0.083, 0.5, 1, 4, 8 and 24 h post dose, blood was collected from 3 mice/group by tail vein or facial bleed into K2EDTA collection tubes, and protein was precipitated and analysed by LC/MS-MS for plasma concentrations of MBX-4132. Sampling was performed serially, with each mouse contributing sample at all time points. Data were analysed using WinNonLin.

Streptococcus pneumoniae = assay: MIC, microbroth dilution; type: cell-based
KCNQ1/mink = target: T7, KCNQ1/mink (Homo sapiens, UniProt P51787); assay: cell-based
T7 construct: Eurofins Discovery Services (contract assay) CYL8007QP2DR
Procedure: as §1

Cav1.2 = target: T8, Cav1.2 (Homo sapiens, UniProt Q13936); assay: cell-based
T8 construct: Eurofins Discovery Services (contract assay) CYL8051QP2DR
Procedure: as §1

[3] = Staphylococcus aureus ATCC 25923, replicates
[4] = Staphylococcus aureus ATCC 35556, replicates
[5] = Staphylococcus aureus BAA-1717, replicates
[6] = Staphylococcus aureus MRSA-1094, replicates
[7] = Staphylococcus aureus MRSA-1234547263, replicates
[8] = Staphylococcus aureus MSSA, replicates
[9] = Staphylococcus aureus N315, NRS-70, replicates
[10] = Staphylococcus aureus NRS-77, replicates
[11] = Staphylococcus aureus THC1516, replicates
[12] = Staphylococcus aureus, ATCC25923, Staphylococcus aureus ATCC 25923, replicates, read-out: MIC
[13] = Staphylococcus aureus, ATCC25923, strain ATCC 25923, read-out: MIC
[14] = Staphylococcus aureus, ATCC35556, Staphylococcus aureus ATCC 35556, replicates, read-out: MIC
[15] = Staphylococcus aureus, ATCC35556, strain ATCC 35556, read-out: MIC
[16] = Staphylococcus aureus, BAA1717, Staphylococcus aureus BAA-1717, replicates, read-out: MIC
[17] = Staphylococcus aureus, BAA-1717 / MRSA, strain BAA-1717, MRSA, read-out: MIC
[18] = Staphylococcus aureus, MRSA / NRS 70, strain N315, NRS-70, MRSA, read-out: MIC
[19] = Staphylococcus aureus, MRSA, strain MRSA-1094, MRSA, read-out: MIC
[20] = Staphylococcus aureus, MRSA, strain MRSA-1234547263, MRSA, read-out: MIC
[21] = Staphylococcus aureus, MRSA, strain THC1516, MRSA, read-out: MIC
[22] = Staphylococcus aureus, MSSA, strain MSSA, read-out: MIC
[23] = Staphylococcus aureus, NRS70, Staphylococcus aureus N315, NRS-70, replicates, read-out: MIC
[24] = Staphylococcus aureus, NRS77, strain NRS-77, read-out: MIC
[25] = Staphylococcus aureus, Staphylococcus aureus THC1516, replicates, read-out: MIC
[26] = Klebsiella pneumoniae ATCC 13883, replicates
[27] = Klebsiella pneumoniae, ATCC13883, strain ATCC 13883, read-out: MIC
[28] = Acinetobacter baumannii ATCC 19606, replicates
[29] = Acinetobacter baumannii, ATCC19606, Acinetobacter baumannii ATCC 19606, replicates, read-out: MIC
[30] = Acinetobacter baumannii, ATCC19606, strain ATCC 19606, read-out: MIC

T2 sequence (P23219 24-599): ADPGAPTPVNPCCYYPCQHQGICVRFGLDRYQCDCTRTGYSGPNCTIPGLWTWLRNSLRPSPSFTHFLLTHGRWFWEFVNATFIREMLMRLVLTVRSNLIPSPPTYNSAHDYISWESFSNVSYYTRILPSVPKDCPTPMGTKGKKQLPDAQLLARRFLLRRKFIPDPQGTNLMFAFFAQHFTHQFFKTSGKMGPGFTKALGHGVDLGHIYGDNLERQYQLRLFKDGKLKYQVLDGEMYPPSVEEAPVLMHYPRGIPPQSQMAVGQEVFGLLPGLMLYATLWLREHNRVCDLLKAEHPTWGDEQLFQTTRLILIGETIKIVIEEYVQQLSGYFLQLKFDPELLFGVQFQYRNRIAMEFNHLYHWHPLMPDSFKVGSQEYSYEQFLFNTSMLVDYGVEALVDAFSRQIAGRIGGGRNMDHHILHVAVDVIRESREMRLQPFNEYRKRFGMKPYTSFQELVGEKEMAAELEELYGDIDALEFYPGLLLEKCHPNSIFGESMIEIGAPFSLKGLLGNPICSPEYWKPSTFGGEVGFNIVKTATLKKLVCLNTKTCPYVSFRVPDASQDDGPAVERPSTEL
T6 sequence (P10635 whole entry): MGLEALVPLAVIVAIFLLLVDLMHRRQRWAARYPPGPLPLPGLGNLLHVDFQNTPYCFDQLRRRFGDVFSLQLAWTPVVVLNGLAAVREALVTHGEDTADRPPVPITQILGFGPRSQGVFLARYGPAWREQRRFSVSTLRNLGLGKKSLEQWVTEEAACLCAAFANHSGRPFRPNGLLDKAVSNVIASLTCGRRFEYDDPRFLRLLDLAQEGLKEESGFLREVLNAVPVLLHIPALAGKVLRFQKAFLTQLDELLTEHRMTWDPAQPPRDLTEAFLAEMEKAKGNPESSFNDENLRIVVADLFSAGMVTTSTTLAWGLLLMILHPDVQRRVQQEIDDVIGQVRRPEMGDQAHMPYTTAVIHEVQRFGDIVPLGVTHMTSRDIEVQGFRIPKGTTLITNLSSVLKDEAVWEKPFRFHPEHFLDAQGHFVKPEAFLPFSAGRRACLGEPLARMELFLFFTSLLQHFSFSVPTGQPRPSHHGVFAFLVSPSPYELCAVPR
T8 sequence (Q13936 whole entry): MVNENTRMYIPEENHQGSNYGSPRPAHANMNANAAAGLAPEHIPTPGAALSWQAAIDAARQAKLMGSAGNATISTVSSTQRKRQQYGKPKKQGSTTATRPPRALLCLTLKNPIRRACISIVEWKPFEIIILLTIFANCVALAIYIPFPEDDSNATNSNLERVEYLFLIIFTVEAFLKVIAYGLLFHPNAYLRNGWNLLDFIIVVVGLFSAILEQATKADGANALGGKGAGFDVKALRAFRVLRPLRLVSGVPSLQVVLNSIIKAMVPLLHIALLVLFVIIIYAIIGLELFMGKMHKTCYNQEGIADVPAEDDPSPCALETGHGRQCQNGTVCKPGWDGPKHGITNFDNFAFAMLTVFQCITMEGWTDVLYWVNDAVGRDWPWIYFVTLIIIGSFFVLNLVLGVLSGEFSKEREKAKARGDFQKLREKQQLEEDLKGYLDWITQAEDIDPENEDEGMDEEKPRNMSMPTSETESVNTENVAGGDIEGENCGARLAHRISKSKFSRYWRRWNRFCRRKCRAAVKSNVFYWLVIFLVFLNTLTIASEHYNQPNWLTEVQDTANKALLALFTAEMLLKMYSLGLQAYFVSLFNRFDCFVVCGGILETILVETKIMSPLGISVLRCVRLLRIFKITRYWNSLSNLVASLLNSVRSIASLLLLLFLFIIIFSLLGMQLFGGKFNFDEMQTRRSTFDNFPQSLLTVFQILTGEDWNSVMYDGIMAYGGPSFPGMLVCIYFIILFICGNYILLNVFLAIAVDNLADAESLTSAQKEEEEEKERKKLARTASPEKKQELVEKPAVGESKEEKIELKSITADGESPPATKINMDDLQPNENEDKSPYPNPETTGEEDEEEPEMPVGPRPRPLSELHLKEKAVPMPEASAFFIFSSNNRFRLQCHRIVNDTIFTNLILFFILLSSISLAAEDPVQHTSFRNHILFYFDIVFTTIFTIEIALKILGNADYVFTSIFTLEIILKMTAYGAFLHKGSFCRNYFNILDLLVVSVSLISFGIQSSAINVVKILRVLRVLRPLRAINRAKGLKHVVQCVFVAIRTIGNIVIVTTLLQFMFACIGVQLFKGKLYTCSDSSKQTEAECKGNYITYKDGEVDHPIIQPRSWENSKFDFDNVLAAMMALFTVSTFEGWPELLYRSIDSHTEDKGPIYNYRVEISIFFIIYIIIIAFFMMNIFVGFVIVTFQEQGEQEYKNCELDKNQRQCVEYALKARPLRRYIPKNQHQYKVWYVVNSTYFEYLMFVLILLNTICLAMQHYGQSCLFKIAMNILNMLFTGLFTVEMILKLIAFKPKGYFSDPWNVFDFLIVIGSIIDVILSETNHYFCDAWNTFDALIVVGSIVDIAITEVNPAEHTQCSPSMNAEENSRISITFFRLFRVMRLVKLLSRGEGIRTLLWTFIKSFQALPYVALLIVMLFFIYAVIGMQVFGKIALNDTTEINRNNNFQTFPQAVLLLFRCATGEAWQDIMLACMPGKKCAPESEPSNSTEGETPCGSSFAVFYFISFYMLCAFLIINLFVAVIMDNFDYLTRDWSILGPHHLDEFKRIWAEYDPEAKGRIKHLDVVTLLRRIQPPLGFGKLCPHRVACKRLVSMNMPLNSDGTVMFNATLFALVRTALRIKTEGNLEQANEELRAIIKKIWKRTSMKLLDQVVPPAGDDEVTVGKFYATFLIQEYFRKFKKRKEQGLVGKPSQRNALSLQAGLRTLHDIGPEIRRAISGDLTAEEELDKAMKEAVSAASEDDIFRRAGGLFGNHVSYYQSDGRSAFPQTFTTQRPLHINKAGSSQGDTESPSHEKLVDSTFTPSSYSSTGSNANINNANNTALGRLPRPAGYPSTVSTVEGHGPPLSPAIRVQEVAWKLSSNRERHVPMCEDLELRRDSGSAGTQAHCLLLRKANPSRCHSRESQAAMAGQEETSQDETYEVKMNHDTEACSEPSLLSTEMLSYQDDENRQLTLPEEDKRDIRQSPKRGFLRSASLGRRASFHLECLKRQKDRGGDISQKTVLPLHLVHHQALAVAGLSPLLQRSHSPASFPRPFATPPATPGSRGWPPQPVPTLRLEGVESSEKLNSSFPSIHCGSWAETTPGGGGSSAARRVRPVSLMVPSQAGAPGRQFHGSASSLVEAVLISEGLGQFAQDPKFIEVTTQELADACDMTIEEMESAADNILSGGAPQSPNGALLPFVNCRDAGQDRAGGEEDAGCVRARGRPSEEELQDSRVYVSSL
T8 sequence (Q08289 whole entry partner): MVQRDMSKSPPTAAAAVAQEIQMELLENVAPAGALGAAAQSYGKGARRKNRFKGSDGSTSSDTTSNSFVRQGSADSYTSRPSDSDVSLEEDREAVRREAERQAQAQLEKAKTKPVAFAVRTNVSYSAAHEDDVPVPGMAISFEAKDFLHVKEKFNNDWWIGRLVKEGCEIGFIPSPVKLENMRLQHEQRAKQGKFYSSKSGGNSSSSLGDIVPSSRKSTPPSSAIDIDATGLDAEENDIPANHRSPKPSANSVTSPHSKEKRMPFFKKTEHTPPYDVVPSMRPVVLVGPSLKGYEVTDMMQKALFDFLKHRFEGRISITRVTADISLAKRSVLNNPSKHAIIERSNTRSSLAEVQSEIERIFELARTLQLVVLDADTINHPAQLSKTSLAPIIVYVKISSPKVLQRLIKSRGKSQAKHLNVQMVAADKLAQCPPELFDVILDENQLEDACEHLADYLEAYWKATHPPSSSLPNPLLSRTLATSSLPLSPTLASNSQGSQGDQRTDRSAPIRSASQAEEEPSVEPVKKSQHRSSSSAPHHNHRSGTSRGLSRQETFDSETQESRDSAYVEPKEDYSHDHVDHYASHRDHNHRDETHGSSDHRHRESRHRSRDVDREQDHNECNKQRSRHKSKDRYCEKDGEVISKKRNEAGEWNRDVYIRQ
T8 sequence (P54289 25-946 partner limits assumed): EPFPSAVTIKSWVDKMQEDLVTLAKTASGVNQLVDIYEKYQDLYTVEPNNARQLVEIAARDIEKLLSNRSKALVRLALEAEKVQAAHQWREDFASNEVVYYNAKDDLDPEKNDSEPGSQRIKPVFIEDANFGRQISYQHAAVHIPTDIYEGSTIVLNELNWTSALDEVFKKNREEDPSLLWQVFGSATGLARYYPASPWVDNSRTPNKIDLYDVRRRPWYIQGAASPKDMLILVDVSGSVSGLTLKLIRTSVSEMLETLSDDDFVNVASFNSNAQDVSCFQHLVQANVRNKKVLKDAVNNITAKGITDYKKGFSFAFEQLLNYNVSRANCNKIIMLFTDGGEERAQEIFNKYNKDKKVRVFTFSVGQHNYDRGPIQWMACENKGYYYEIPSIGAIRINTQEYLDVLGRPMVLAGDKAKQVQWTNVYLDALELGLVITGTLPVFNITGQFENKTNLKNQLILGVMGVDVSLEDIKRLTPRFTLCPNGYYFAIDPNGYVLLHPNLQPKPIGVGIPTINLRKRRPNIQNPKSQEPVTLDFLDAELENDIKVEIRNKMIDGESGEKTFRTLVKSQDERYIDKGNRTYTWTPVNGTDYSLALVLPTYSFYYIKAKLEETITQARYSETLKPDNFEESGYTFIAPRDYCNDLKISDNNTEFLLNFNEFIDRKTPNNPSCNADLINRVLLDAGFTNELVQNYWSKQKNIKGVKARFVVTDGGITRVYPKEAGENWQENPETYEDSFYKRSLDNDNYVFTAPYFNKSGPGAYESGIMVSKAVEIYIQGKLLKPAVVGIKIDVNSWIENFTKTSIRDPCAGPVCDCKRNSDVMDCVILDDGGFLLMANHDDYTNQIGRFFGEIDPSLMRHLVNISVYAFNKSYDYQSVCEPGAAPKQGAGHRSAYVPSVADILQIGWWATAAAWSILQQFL
T8 sequence (P54289 947-1103 partner limits assumed): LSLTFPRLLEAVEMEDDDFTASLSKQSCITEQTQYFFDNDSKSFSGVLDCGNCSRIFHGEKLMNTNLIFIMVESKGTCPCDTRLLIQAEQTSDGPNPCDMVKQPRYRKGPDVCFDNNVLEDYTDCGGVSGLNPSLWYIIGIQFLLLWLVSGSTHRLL

Structure (SMILES): O=C(Nc1nnc(-c2ccc(F)cc2)o1)c1ccc(Cl)cc1 [KKL-35, 4-chloro-N-(5-(4-fluorophenyl)-1,3,4-oxadiazol-2-yl)benzamide]
- MIC (Staphylococcus aureus; [3]): 1 µg/mL (≈ 3.15 µM)
- MIC (Staphylococcus aureus; [4]): 1 µg/mL (≈ 3.15 µM)
- MIC (Staphylococcus aureus; [5]): 1 µg/mL (≈ 3.15 µM)
- MIC (Staphylococcus aureus; [6]): 1 µg/mL (≈ 3.15 µM)
- MIC (Staphylococcus aureus; [7]): 1 µg/mL (≈ 3.15 µM)
- MIC (Staphylococcus aureus; [8]): 1 µg/mL (≈ 3.15 µM)
- MIC (Staphylococcus aureus; [9]): 1 µg/mL (≈ 3.15 µM)
- MIC (Staphylococcus aureus; [10]): 1 µg/mL (≈ 3.15 µM)
- MIC (Staphylococcus aureus; [11]): 1 µg/ml (4×) and 0.5 µg/ml
- MIC (Staphylococcus aureus; [12]): 1 µg/mL (≈ 3.15 µM)
- MIC (Staphylococcus aureus; [13]): 1 µg/mL (≈ 3.15 µM)
- MIC (Staphylococcus aureus; [14]): 1 µg/mL (≈ 3.15 µM)
- MIC (Staphylococcus aureus; [15]): 1 µg/mL (≈ 3.15 µM)
- MIC (Staphylococcus aureus; [16]): 1 µg/mL (≈ 3.15 µM)
- MIC (Staphylococcus aureus; [17]): 1 µg/mL (≈ 3.15 µM)
- MIC (Staphylococcus aureus; [18]): 1 µg/mL (≈ 3.15 µM)
- MIC (Staphylococcus aureus; Staphylococcus aureus, MRSA, Staphylococcus aureus MRSA-1094, replicates, read-out: MIC): 1 µg/mL (≈ 3.15 µM)
- MIC (Staphylococcus aureus; Staphylococcus aureus, MRSA, Staphylococcus aureus MRSA-1234547263, replicates, read-out: MIC): 1 µg/mL (≈ 3.15 µM)
- MIC (Staphylococcus aureus; [19]): 1 µg/mL (≈ 3.15 µM)
- MIC (Staphylococcus aureus; [20]): 1 µg/mL (≈ 3.15 µM)
- MIC (Staphylococcus aureus; [21]): 0.9 µg/mL (≈ 2.83 µM)
- MIC (Staphylococcus aureus; Staphylococcus aureus, MSSA, Staphylococcus aureus MSSA, replicates, read-out: MIC): 1 µg/mL (≈ 3.15 µM)
- MIC (Staphylococcus aureus; [22]): 1 µg/mL (≈ 3.15 µM)
- MIC (Staphylococcus aureus; [23]): 1 µg/mL (≈ 3.15 µM)
- MIC (Staphylococcus aureus; Staphylococcus aureus, NRS77, Staphylococcus aureus NRS-77, replicates, read-out: MIC): 1 µg/mL (≈ 3.15 µM)
- MIC (Staphylococcus aureus; [24]): 1 µg/mL (≈ 3.15 µM)
- MIC (Staphylococcus aureus; [25]): 1 µg/mL (≈ 3.15 µM)
- MIC (Klebsiella pneumoniae; [26]): ≥32 µg/mL
- MIC (Klebsiella pneumoniae; [27]): ≥ 32 µg/mL
- MIC (Acinetobacter baumannii; [28]): ≥32 µg/mL
- MIC (Acinetobacter baumannii; [29]): ≥ 32 µg/mL
- MIC (Acinetobacter baumannii; [30]): > 32 µg/mL

Structure (SMILES): O=C(Nc1nnc(-c2ccc(F)cc2)o1)N1CCc2ccccc2C1 [MBX-4132]
- inhibition at 10 µM (Opiate Mu (OP3, MOP)): 17%
- MIC (Staphylococcus aureus; [3]): 8.46 µg/mL (≈ 25 µM)
- MIC (Staphylococcus aureus; [4]): 4.23 µg/mL (≈ 12.5 µM)
- MIC (Staphylococcus aureus; [5]): 1 µg/mL (≈ 2.96 µM)
- MIC (Staphylococcus aureus; [6]): 2.11 µg/mL and 4.23 µg/mL
- MIC (Staphylococcus aureus; [7]): 2.11 µg/mL and 4.23 µg/mL
- MIC (Staphylococcus aureus; [8]): 2.11 µg/mL and 4.23 µg/mL
- MIC (Staphylococcus aureus; [9]): 8.46 µg/mL (≈ 25 µM)
- MIC (Staphylococcus aureus; [10]): 2.11 µg/mL and 4.23 µg/mL
- MIC (Staphylococcus aureus; [11]): 0.5 µg/ml (3×) and 1 µg/ml (2×)
- MIC (Staphylococcus aureus; [12]): 4.23 µg/mL (≈ 12.5 µM)
- MIC (Staphylococcus aureus; [13]): 6.3 µg/mL (≈ 18.6 µM)
- MIC (Staphylococcus aureus; [14]): 4.23 µg/mL (≈ 12.5 µM)
- MIC (Staphylococcus aureus; [15]): 4.2 µg/mL (≈ 12.4 µM)
- MIC (Staphylococcus aureus; [16]): 1 µg/mL (≈ 2.96 µM)
- MIC (Staphylococcus aureus; [17]): 1 µg/mL (≈ 2.96 µM)
- MIC (Staphylococcus aureus; [18]): 6.3 µg/mL (≈ 18.6 µM)
- MIC (Staphylococcus aureus; [19]): 3.2 µg/mL (≈ 9.46 µM)
- MIC (Staphylococcus aureus; [20]): 3.2 µg/mL (≈ 9.46 µM)
- MIC (Staphylococcus aureus; [21]): 1 µg/mL (≈ 2.96 µM)
- MIC (Staphylococcus aureus; [22]): 3.2 µg/mL (≈ 9.46 µM)
- MIC (Staphylococcus aureus; [23]): 4.23 µg/mL (≈ 12.5 µM)
- MIC (Staphylococcus aureus; [24]): 3.2 µg/mL (≈ 9.46 µM)
- MIC (Staphylococcus aureus; [25]): 0.5 µg/mL (≈ 1.48 µM)
- inhibition at 10 µM (Cycloogenase COX-1): 8%
- inhibition at 10 µM (Phosphodiesterase PDE3A): -6%
- % inhibition (Glutamate, NMDA, Agonism): 8%
- fraction unbound ([1]; Average Value, Eurofins): 0.009
- fraction unbound ([1]; Replicate 1/2, Eurofins): 0.017 and 0.002
- fraction unbound ([1]; Reported value, Eurofins): 0.01
- inhibition at 10 µM (Endothelin ETA): -15%
- IC50 (CYP2B6): > 100 µM
- IC50 (CYP2D6): > 100 µM
- oral bioavailability (in words) ([2]; mice): highly orally bioavailable
- exposure in fasted vs fed mice (in words) ([2]; plasma at 1 and 4 h post dosing, formulation A): No significant variation in exposure
- MIC (Streptococcus pneumoniae; Streptococcus pneumoniae ATCC 49619, replicates): 34 µg/mL (≈ 100 µM)
- MIC (Streptococcus pneumoniae; Streptococcus pneumoniae, ATCC49619, strain ATCC 49619, read-out: MIC): 34 µg/mL (≈ 100 µM)
- MIC (Klebsiella pneumoniae; [26]): ≥34 µg/mL
- MIC (Klebsiella pneumoniae; [27]): ≥ 34 µg/mL
- IC50 (KCNQ1/mink): > 30 µM
- IC50 (Cav1.2): > 30 µM
- MIC (Acinetobacter baumannii; [28]): ≥34 µg/mL
- MIC (Acinetobacter baumannii; [29]): ≥ 34 µg/mL
- MIC (Acinetobacter baumannii; [30]): ≥ 34 µg/mL
